We go through 17 molecules from US5039691A, “5-(1-(imidazol)methyl)-3,3-disubstituted-2(3H)furanone derivatives” (Marion Merrell Dow Inc., priority 1990, dated 1991).

Where a name gives a salt, the structure may show the parent alone.

One data set concerns mammalian heart tissue. Particulars: Pohland, S. African Patent 68 05,631; cited from earlier work.
The target in data set [1] is T1, muscarinic cholinergic receptors on intestinal (ileal-longitudinal) smooth muscle (Cavia porcellus, UniProt H0W1Z3).
T1 construct: The longitudinal muscle, with the myenteric plexus attached, is separated from the underlying circular muscle; from tissue; host or cells: guinea pig ileum, longitudinal smooth muscle with myenteric plexus
T1 sequence (H0W1Z3 1-590): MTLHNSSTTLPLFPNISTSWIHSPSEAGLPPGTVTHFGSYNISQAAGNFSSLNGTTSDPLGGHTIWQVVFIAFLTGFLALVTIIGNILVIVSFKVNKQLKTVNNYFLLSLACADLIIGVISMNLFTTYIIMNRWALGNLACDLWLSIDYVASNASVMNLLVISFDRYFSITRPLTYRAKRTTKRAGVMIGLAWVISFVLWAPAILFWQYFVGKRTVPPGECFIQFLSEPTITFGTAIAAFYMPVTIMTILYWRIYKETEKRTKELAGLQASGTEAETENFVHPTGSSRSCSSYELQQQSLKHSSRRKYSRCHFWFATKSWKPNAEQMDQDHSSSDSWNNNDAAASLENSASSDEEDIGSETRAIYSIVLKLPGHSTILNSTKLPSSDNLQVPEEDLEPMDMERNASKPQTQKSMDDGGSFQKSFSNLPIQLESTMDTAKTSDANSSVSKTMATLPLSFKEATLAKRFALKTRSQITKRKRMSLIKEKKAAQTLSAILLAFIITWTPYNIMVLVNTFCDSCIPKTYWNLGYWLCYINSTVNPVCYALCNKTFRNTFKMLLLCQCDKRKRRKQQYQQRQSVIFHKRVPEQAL
Put plainly: Antimuscarinic test: antagonism of carbachol contraction of isolated ileum (Muscarinic Antagonist Activity, Ileum). The settings on record: carbachol agonist, 37° C. Set-up: species or system guinea pig.

For data set [2], the target named is T2, muscarinic cholinergic receptors on bladder detrusor muscle (Cavia porcellus, UniProt H0W1Z3).
T2 construct: The peritoneal cavity is opened and the bladder is held lightly at its apex; from tissue; host or cells: guinea pig urinary bladder, detrusor strips without mucosa
T2 sequence (H0W1Z3 1-590): as above
The data set is described as follows: Antimuscarinic test: antagonism of carbachol contraction of isolated bladder (Muscarinic Antagonist Activity, Bladder). Set-up: species or system guinea pig. Particulars: bladder detrusor strips, carbachol agonist, 35° C. On the procedure:
ANTIMUSCARINIC TEST PROTOCOL
PREPARATION OF BLADDER FOR TESTING
Male albino guinea pigs are killed by decapitation or cervical dislocation. The peritoneal cavity is opened and the bladder is held lightly at its apex, stretched gently, and fat is lifted with fine forceps and dissected away in situ with blunt-tipped scissors as close to the surface of the bladder as possible. The tissue is placed in a latex-bottomed Petri dish that contains a modified Krebs solution (133 mM NaCl, 1.3 mM […], 16.3 mM NaHCO3, 4.7 mM KCl, 0.6 mM MgSO4.7H2 O, 2.5 mM CaCl2.2H2 O, 7.7 mM dextrose) and cut above the neck. The bladder is collapsed into a flat pouch, which is opened by two lateral incisions and unfolded to give a rectangular sheet of tissue approximately 2 cm long and 1 cm wide. The sheet is gently stretched and pinned to the bottom of the Petri dish. Blunt separation of the mucosa, which is visible as a looser superficial pink layer, is started at one end by carefully inserting the blades of micro dissecting scissors between the mucosa and muscle layers and using gentle spreading of the blades, together with steady traction with forceps to tease the two layers apart. Clean removal of the mucosa is usually possible without any fraying or tearing of the underlying muscle. The removal of the mucosa is considered essential for improving oxygen supply to the preparation and for providing better access on both sides of the thin muscle sheet for administered drugs (Ambache and Zar, J. Physiol. 210:671, 1970). The sheet is trimmed, if necessary, and cut longitudinally into four strips.
The strips are tied off with 5-0 silk suture and are then suspended in 10 mL water-jacketed glass tissue baths containing the Krebs solution maintained at 35° C. and aerated with 95% O2 /5% CO2. The suture connects each tissue to an isometric force-displacement transducer (Grass or Gould) coupled to a physiograph. Each preparation is suspended under a resting tension of 0.5 g and allowed to equilibrate for 36 minutes. During this period, the baths are emptied and filled every 12 minutes with 10 mL of warm Krebs buffer. At the end of this period, each muscle strip is conditioned by adding 10 μM carbachol to the baths. The drug remains in contact with each tissue for 1-2 minutes and then is removed by four rapid rinses of 10 mL of warm Krebs buffer. The preparations are allowed to recover for an additional 12 minutes before being used in experiments.
Carbachol is dissolved in saline to produce 2×10^-2 M stock concentrations. Serial dilutions (1:10) in saline or water are made from the stock solution. Appropriate volumes of these solutions are added cumulatively to the 10 mL tissue baths in order to obtain the desired bath concentrations.
PREPARATION OF TEST COMPOUNDS
Compounds that are soluble in water or saline are dissolved in these solvents to produce 2×10^-2 or 2×10^-3 M stock concentrations. Small amounts of IN HCl, NaOH, or 95% ethanol may be added for those agents that are not soluble in water or saline alone. Serial dilutions (1:10) in saline or water are made from the stock solution. Compounds that are insoluble in aqueous solvents are dissolved in dimethylsulfoxide (DMSO) to produce 4×10^-2 M stock solutions. Serial dilutions (1:10) in water are made from the stock solution. Other solvents may be used when appropriate and will be specifically described in the experimental procedure. Appropriate volumes are then added to the baths in order to obtain the desired bath concentrations.
Appropriate volumes of carbachol solutions are cumulatively added to the 10 mL tissue baths to increase the concentration of carbachol in the bath step-by-step without washing out after each single dose. With each concentration step, the tissue contracts isometrically. The next concentration is added only after the preceding contraction has reached a steady value. […]

The next data set relates to Male Guinea pigs. The data set is described as follows: Primary in vivo bronchodilator assay for muscarinic antagonists (reversal of carbachol bronchoconstriction). Set-up: species or system guinea pig. Particulars: Cavia porcellus, iv, cumulative dose causing 50% reversal of carbachol bronchoconstriction. On the procedure: PRIMARY IN VIVO BRONCHODILATOR ASSAY FOR MUSCARINIC ANTAGONISTS Male Guinea pigs were anesthetized by urethane. The trachea, carotid artery and jugular vein were cannulated. Animals were ventilated with room air at a constant rate and volume. Airway pressure was measured from a side port of the tracheal catheter, and blood pressure and heart rate were monitored as well. After a stable baseline period, an aerosol of carbachol was administered via an ultrasonic nebulizer. Once the bronchoconstrictor response plateaued, test compound was given in increasing i.v. doses to cause graded, cumulative reductions in airway pressure. If more than a 50% reversal of bronchoconstriction occurred, an ED50 value for bronchodilator potency was calculated using a probit analysis. The ED50 was defined as the cumulative i.v. dose that caused a 50% reversal of bronchoconstriction.

A further data set in a line: Solubility. Type of data set: physicochemical.
The subject of data set [3] is isolated guinea pig ileum. The settings on record: Kolokouris et al., Ann. Pharm. Fr. 1985; cited from earlier work.

Regarding `CCN(CC)CC1CC(c2ccccc2)(c2ccccc2)C(=O)O1` (stereo not shown) [5-[(Diethylamino)-methyl]-4,5-dihydro-3,3-diphenyl-2(3H)furanone], the “antiarrhythmic effectiveness in mammalian heart tissue” value with mammalian heart tissue was “antiarrhythmic effectiveness in mammalian heart tissue”.

By Kb is commonly meant the equilibrium dissociation constant of an antagonist, usually derived from a functional assay. A higher Kb goes with a less potent antagonist. By ED50 is commonly meant the midpoint of the dose-response relation. For the molecule `CCCc1n(CC2CC(c3ccccc3)(c3ccccc3)C(=O)O2)cc[n+]1C` (stereo not shown) [5-[1-(3-Methyl-2-n-propylimidazol-methyl]-4,5-dihydro-3,3-diphenyl-2(3H)furanone iodide], the values for the Kb in data set [1] and in data set [2] were 23 nM and 11 nM, respectively. The ED50 with Male Guinea pigs was determined as 0.11 mg/kg.

As to `CC(C)c1nccn1C[C@H]1CC(c2ccccc2)(c2ccccc2)C(=O)O1` [(R)-(+)-5-[1-(2-Isopropylimidazol)methyl]-4,5-dihydro-3,3-diphenyl-2(3H)furanone hydrochloride], the Kb is 10 nM in data set [1] and 15 nM in data set [2].

Consider `O=C1OC(Cn2cnc(-c3ccccc3)c2)CC1(c1ccccc1)c1ccccc1` (stereo not shown) [5-[1-(4-Phenylimidazol)methyl]-4,5-dihydro-3,3-diphenyl-2(3H)furanone hydrochloride hydrate], for which the “Insol. (printed in the bronchodilator ED50 column)” value in the data set “Solubility” (bronchodilator test, i.v.) is “Insol”. The molecule further returned a Kb in data set [1] of 140 nM.

`CCOCc1n(C)cc[n+]1CC1CC(c2ccccc2)(c2ccccc2)C(=O)O1` (stereo not shown) [5-[1-(Ethoxymethyl-3-methylimidazol)methyl]-4,5-dihydro-3,3-diphenyl-2(3H)furanone iodide]: the Kb in data set [1] is 253 nM; in data set [2], 339 nM. Also, the ED50 with Male Guinea pigs is over 10 mg/kg.

With `CCc1nccn1C[C@H]1CC(c2ccccc2)(c2ccccc2)C(=O)O1` [(R)-(+)-5-[1-(2-Ethylimidazol)methyl]-4,5-dihydro-3,3-diphenyl-2(3H)furanone hydrochloride], the Kb in data set [1] stood at 21 nM; in data set [2], 129 nM.

For `CCCc1nccn1CC1CC(c2ccccc2)(c2ccccc2)C(=O)O1` (stereo not shown) [5-[1-(2-n-Propylimidazol)methyl]-4,5-dihydro-3,3-diphenyl-2(3H)furanone hydrochloride], the Kb was 21 nM in data set [1] and 70 nM in data set [2]. In addition, the ED50 in the data set on Male Guinea pigs was 1.3 mg/kg.

For `C[n+]1ccn(CC2CC(c3ccccc3)(c3ccccc3)C(=O)O2)c1` (stereo not shown) [5-[1-(3-Methylimidazol)methyl]-4,5-dihydro-3,3-diphenyl-2(3H)furanone bromide hydrate], the Kb in data set [1] stood at 322 nM; in data set [2] it was 151 nM. In addition, the ED50 in the data set on Male Guinea pigs was determined as 1 mg/kg.

Turning to `CCc1n(CC2CC(c3ccccc3)(c3ccccc3)C(=O)O2)cc[n+]1C` (stereo not shown) [5-[1-(2-Ethyl-3-methylimidazol)methyl]-4,5-dihydro-3,3-diphenyl-2(3H)furanone bromide], the figures for the Kb in data set [1] and in data set [2] were 8 nM and 5 nM, respectively. The median effective dose (ED50) in the data set with Male Guinea pigs was 0.13 mg/kg.

With `CCc1nccn1CC1CC(c2ccccc2)(c2ccccc2)C(=O)O1` (stereo not shown) [5-[1-(2-Ethylimidazol)methyl]-4,5-dihydro-3,3-diphenyl-2(3H)furanone hydrochloride], the Kb in data set [1] came to 68 nM; in data set [2], 86 nM. Besides, in the data set on Male Guinea pigs, the ED50 was found to be 4 mg/kg.

As to `Cc1nccn1CC1CC(c2ccccc2)(c2ccccc2)C(=O)O1` (stereo not shown) [5-[1-(2-Methylimidazol)methyl]-4,5-dihydro-3,3-diphenyl-2(3H)furanone], the figures for the Kb in data set [1] and in data set [2] were 107 nM and 238 nM, respectively. In addition, in the data set with Male Guinea pigs, the median effective dose (ED50) turned out to be 5.5 mg/kg.

As for `CCc1nccn1C[C@@H]1CC(c2ccccc2)(c2ccccc2)C(=O)O1` [(S)-(-)-5-[1-(2-Ethylimidazol)methyl]-4,5-dihydro-3,3-diphenyl-2(3H)furanone hydrochloride], the Kb in data set [1] was found to be 169 nM; in data set [2], 350 nM.

What is called solubility is the concentration that dissolves in the medium under given conditions. Low readings indicate a poorly soluble substance, high ones a readily soluble substance. In turn, `CC(C)c1nccn1CC1=CC(c2ccccc2)(c2ccccc2)C(=O)O1` [5-[1-(2-Isopropylimidazol)methyl]-3,3-diphenyl-2(3H)furanone hydrochloride hydrate] had a solubility in the data set “Solubility” (in 0.5N HCl and 1 drop of Tween 80) of over 1000 µg/mL. The Kb in data set [1] was found to be 31 nM.

For the molecule “5-[1-(3-Methylimidazol)methyl]-4,5-dihydro-5-methyl-3,3-diphenyl-2(3H)furanone hydrate”, the Kb in data set [1] worked out at 370 nM; in data set [2], 317 nM.

In the case of `CC(C)c1n(CC2CC(c3ccccc3)(c3ccccc3)C(=O)O2)cc[n+]1C` (stereo not shown) [5-[1-(2-Isopropyl-3-methylimidazol)methyl]-4,5-dihydro-3,3-diphenyl-2(3H)furanone iodide], the antagonist dissociation constant (Kb) in data set [1] came out at 4 nM; in data set [2], 2.4 nM.

For the molecule `CN(C)CC1CC(c2ccccc2)(c2ccccc2)OC1=O` (stereo not shown) [3-[(dimethylamino)methyl]-4,5-dihydro-5,5-diphenyl-2(3H)furanone], the “prevents contractions of isolated guinea pig ileum (spasmolytic)” value in data set [3] is recorded as “prevents contractions of isolated guinea pig ileum”.

On to `CC(C)c1nccn1CC1CC(c2ccccc2)(c2ccccc2)C(=O)O1` (stereo not shown) [5-[1-(2-Isopropylimidazol)methyl]-4,5-dihydro-3,3-diphenyl-2(3H)furanone hydrochloride], for which the results for the Kb in data set [1] and in data set [2] were 30 nM and 33 nM, respectively. Besides, the ED50 in the data set with Male Guinea pigs amounted to 0.83 mg/kg.
